Like-named read-outs stand apart in the source and are kept apart here. A value given as a limit tells only on which side of the number the result lay.

Test [1] deals with CTL clone M77.86. The test is described as follows: 51Cr assay, recognition by Melan-A specific CTL clone M77.86. The class given is cell-based, human. The settings on record: Table IV; for EC50: read-out: Peptide [nM] 50%; for Relative activity: relative to SEQ ID NO: 2.
For test [2], the system named is CTL clone 7.10. The test is described as follows: 51Cr assay, recognition by Melan-A specific CTL clone 7.10. The format is cell-based, human. The following applies: Table IV; for EC50: read-out: Peptide [nM] 50%; for Relative activity: relative to SEQ ID NO: 2.
Test [3] has as its system Melan-A specific CTL clone. As to the kind of experiment: 51Cr assay, recognition by Melan-A specific CTL clone (third clone, name not given). The class given is cell-based, human. The following applies: Table IV; for EC50: read-out: Peptide [nM] 50%; for Relative activity: relative to SEQ ID NO: 2.
Test [4] deals with CTL clone M77.80. As to the kind of experiment: 51Cr assay, recognition by Melan-A specific CTL clone M77.80. The format is cell-based, human. The settings on record: Table IV; for EC50: read-out: Peptide [nM] 50%; for Relative activity: relative to SEQ ID NO: 2.
Test [5] has as its system CTL clone 1.13. The test is described as follows: 51Cr assay, recognition by Melan-A specific CTL clone 1.13. The class given is cell-based, human. The settings on record: Table IV; for EC50: read-out: Peptide [nM] 50%; for Relative activity: relative to SEQ ID NO: 2.
The test system of test [6] is five HLA-A*0201 restricted Melan-A specific CTL clones. The test is described as follows: Recognition by five HLA-A*0201 restricted Melan-A specific CTL clones, statements. The format is cell-based, human. The following applies: compared with SEQ ID NO: 2.
In test [7] the target is T1, HLA-A*0201 (Homo sapiens, UniProt P04439, D140Y/D185E/D98H/E176V/E277Q/G131W/G231S/I119V/I121R/I166T/I218V/L300P/L318F/N151K/N90K/P208A/P217A/Q86G/Q94H/R138H/R169H/T345S).
The test system of test [8] is TILN LAU 203. As to the kind of experiment: 51Cr release assay, TILN recognition of peptide on T2 cells, TILN LAU 203.
Test [9] has as its system TILN LAU 132. As to the kind of experiment: 51Cr release assay, TILN recognition of peptide on T2 cells, TILN LAU 132.
Test [10] relates to panel of the CTLs. As to the kind of experiment: Recognition assay dissecting the CTL panel (Example 10).
Test [11] addresses T1, HLA-A*0201. This is another data set of the same source.
For test [12], the target named is T1, HLA-A*0201. The settings on record: relative to SEQ ID NO: 1.
Test [13] has as its target T1, HLA-A*0201. The following applies: fluorescence index, 16 hours, 23° C.
In test [14] the target is T1, HLA-A*0201. The following applies: Table II; relative to SEQ ID NO: 2.
[15] abbreviates: read-out:, Table III, dose response, T2 cells.
[16] abbreviates: Table III, relative to SEQ ID NO: 2.
Where [17] appears, read: Table I, [nM]50% SEQ ID NO: 2 / [nM]50% test peptide.
The mark [18] stands for this setting: read-out: Peptide [nM] 50%, Table I, T2 targets, effector:target 30:1, concentration giving 50% of maximum activity.

Consider `CC[C@H](C)[C@H](NC(=O)CNC(=O)[C@H](CC(C)C)NC(=O)[C@H](C)NC(=O)[C@@H](N)CCC(=O)O)C(=O)NCC(=O)N[C@H](C(=O)N[C@@H](CC(C)C)C(=O)N[C@H](C(=O)N[C@H](C(=O)O)C(C)C)[C@@H](C)O)[C@@H](C)CC` [SEQ ID NO: 11], for which the EC50 in test [1] is 0.015 nM; in test [2], 0.5 nM; in test [3], 0.015 nM; in test [4] it was 0.5 nM; in test [5], 20 nM; in test [8] (setting [15]), more than 1000 nM. Further, in test [9] (setting [15]), the EC50 is more than 1000 nM. The “recognition by the five CTL clones, in words” value (“recognition … in words” for short) in [6] was “reduced recognition for four of five”. Moreover, the “stability of peptide/HLA-A*0201 complexes” value in test [7] is reported as “intermediate stability”.
As for `CC[C@H](C)[C@H](NC(=O)CNC(=O)[C@H](C)NC(=O)[C@H](C)NC(=O)[C@@H](N)Cc1ccc(O)cc1)C(=O)NCC(=O)N[C@H](C(=O)N[C@@H](CC(C)C)C(=O)N[C@H](C(=O)N[C@H](C(=O)O)C(C)C)[C@@H](C)O)[C@@H](C)CC` [SEQ ID NO: 13], the EC50 in test [1] was 0.015 nM; in test [2] it was 35 nM; in [3], more than 1000 nM; in [4], 1000 nM; in [5], more than 10000 nM; in test [8] (setting [15]), 5 nM. In [9] (setting [15]), the EC50 was determined as 1 nM. Besides, the Relative activity was 1000 in test [1]; 1.4 in test [2]; less than 0.3 in [3]; 0.3 in test [4]; less than 0.4 in test [5]; 20 in [8] (setting [16]). The same compound showed a Relative activity in [9] (setting [16]) of 30. Besides, the “recognition … in words” value in test [6] is “reduced recognition by the CTLs”. Moreover, the “recognition by a fifth CTL” value in [10] is on record as “recognized”. In addition, the “recognition by four of the CTLs” value in test [10] was “equally well”. In test [10], the “recognition by two other CTLs” value is on record as “not”.
In the case of “Lys Leu Val Val Val Gly Ala Val Gly Val [SEQ ID NO: 20]”, the lysis percentage in [11] (peptide used alone, CTL clone 7 RAS, T2 cells) stood at 80%.
For `CC[C@H](C)[C@H](NC(=O)CNC(=O)[C@H](CC(C)C)NC(=O)[C@H](C)N)C(=O)NCC(=O)N[C@H](C(=O)N[C@@H](CC(C)C)C(=O)N[C@H](C(=O)N[C@H](C(=O)O)C(C)C)[C@@H](C)O)[C@@H](C)CC` [SEQ ID NO: 5], the EC50 in test [1] was 90 nM; in [2], more than 1000 nM; in test [3], more than 1000 nM; in [4], more than 1000 nM; in test [5], more than 10000 nM; in test [8] (setting [15]), more than 1000 nM. For the same compound, the EC50 in test [9] (setting [15]) was more than 1000 nM. Besides, in test [7], the “stability of peptide/HLA-A*0201 complexes” value is “intermediate stability”.
In the case of `CC[C@H](C)[C@H](NC(=O)CNC(=O)[C@H](C)NC(=O)[C@H](C)NC(=O)[C@@H](N)Cc1ccccc1)C(=O)NCC(=O)N[C@H](C(=O)N[C@@H](CC(C)C)C(=O)N[C@H](C(=O)N[C@H](C(=O)O)C(C)C)[C@@H](C)O)[C@@H](C)CC` [SEQ ID NO: 14], the EC50 was 0.005 nM in test [1]; 7 nM in test [2]; more than 1000 nM in [3]; more than 1000 nM in [4]; 200 nM in [5]; 1 nM in test [8] (setting [15]). For the same compound, the EC50 in [9] (setting [15]) was 0.05 nM. Further, the Relative activity in [1] is listed as 3000; in [2], 7; in [3], less than 0.3; in test [4], less than 0.3; in [5] it was 20; in test [8] (setting [16]) it was 60. Besides, the Relative activity in test [9] (setting [16]) was determined as 600. The “recognition … in words” value in [6] is given as “reduced recognition by the CTLs”. Further, the “recognition by a fifth CTL” value in test [10] is “not”. The “recognition by four of the CTLs” value in test [10] is “equally well”. Besides, the “recognition by two other CTLs” value in [10] is “recognized”.
In the case of `CC[C@H](C)[C@H](NC(=O)CNC(=O)[C@H](C)NC(=O)[C@@H](N)CCSC)C(=O)NCC(=O)N[C@H](C(=O)N[C@@H](CC(C)C)C(=O)N[C@H](C(=O)N[C@H](C(=O)O)C(C)C)[C@@H](C)O)[C@@H](C)CC` [SEQ ID NO: 8], the EC50 was found to be 0.6 nM in test [1]; 15 nM in [2]; 200 nM in test [3]; 0.5 nM in [4]; 80 nM in [5]; 8 nM in test [8] (setting [15]). Further, the EC50 in test [9] (setting [15]) was 2.5 nM. For the same compound, in test [7], the “stability of peptide/HLA-A*0201 complexes” value is listed as “unstable complexes, which decay within one hour”.
As for `CC[C@H](C)[C@H](NC(=O)CNC(=O)[C@H](CCSC)NC(=O)[C@H](C)NC(=O)[C@@H](N)CCC(=O)O)C(=O)NCC(=O)N[C@H](C(=O)N[C@@H](CC(C)C)C(=O)N[C@H](C(=O)N[C@H](C(=O)O)C(C)C)[C@@H](C)O)[C@@H](C)CC` [SEQ ID NO: 12], the EC50 was 550 nM in [1]; more than 1000 nM in [2]; 40 nM in test [3]; more than 1000 nM in [4]; more than 10000 nM in [5]; more than 1000 nM in [8] (setting [15]). Besides, in test [9] (setting [15]), the EC50 is more than 1000 nM. Besides, the “recognition … in words” value in test [6] is recorded as “recognition improved”. The “stability of peptide/HLA-A*0201 complexes” value in test [7] is listed as “intermediate stability”.
For “Glu Ala Ala Gly Ile Gly Ile Leu Ala Val [SEQ ID NO: 24]”, the “change in competitor activity, in words” value in [12] is listed as “did not result in significant changes in activity”.
As for “ILTVILGVL [SEQ ID NO: 4, reference compound]”, the “binding to HLA-A*0201 compared with SEQ ID NO: 2, in words” value in [11] is recorded as “comparable to SEQ ID NO: 2”. In addition, the “relative binding activity, in words” value in test [13] is reported as “about the same as SEQ ID NO: 2”. Besides, the Relative activity in [8] (setting [17]) is <4 × 10^−3; in test [9] (setting [17]), <1.5 × 10^−3. The EC50 in test [8] (setting [18]) and in test [9] (setting [18]) was more than 10000 nM throughout.
Consider `CC[C@H](C)[C@H](NC(=O)CNC(=O)[C@H](CCSC)NC(=O)[C@H](C)N)C(=O)NCC(=O)N[C@H](C(=O)N[C@@H](CC(C)C)C(=O)N[C@H](C(=O)N[C@H](C(=O)O)C(C)C)[C@@H](C)O)[C@@H](C)CC` [SEQ ID NO: 6], for which the EC50 in test [1] is more than 1000 nM; in [2] it was more than 1000 nM; in test [3], more than 1000 nM; in test [4] it was more than 1000 nM; in test [5], more than 10000 nM; in test [8] (setting [15]), more than 1000 nM. Also, the EC50 in test [9] (setting [15]) is more than 1000 nM. In addition, the “stability of peptide/HLA-A*0201 complexes” value in test [7] was “intermediate stability”.
In the case of “Glu Ala Ala Gly Ile Gly Ile Ala Thr Val [SEQ ID NO: 23]”, the “change in competitor activity, in words” value in test [12] is on record as “did not result in significant changes in activity”.
With `C[C@H](NC(=O)[C@@H](N)CCC(=O)O)C(=O)N[C@@H](CC(=O)O)C(=O)N1CCC[C@H]1C(=O)N[C@H](C(=O)NCC(=O)N[C@@H](Cc1c[nH]cn1)C(=O)N[C@@H](CO)C(=O)N[C@@H](Cc1ccc(O)cc1)C(=O)O)[C@@H](C)O` [SEQ ID NO: 21], in [14], the Relative competitor activity is less than 0.6. The “binding to HLA-A*0201 compared with SEQ ID NO: 2, in words” value in test [11] is listed as “no binding”.

These data come from patent US7713714B2, “Isolated nona- and decapeptides which bind to HLA molecules, and the use thereof” (Ludwig Institute for Cancer Research, priority 1997, dated 2010).
